Experimental data taken from patent US6737383B1, “Herbicidal oxadiazolidines” (priority 1999, dated 2004).

Tests used:
[1] = test system: crabgrass; assay: Test B pre/postemergence crabgrass; format: in vivo, Digitaria sanguinalis; details: for Crabgrass plant response rating (0 to 10 scale): 0 is no effect
In short: (§1)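 Test chemicals in a non-phytotoxic solvent mixture with surfactant were sprayed preemergence onto planted seeds and postemergence onto plants 2 to 18 cm tall (1- to 4-leaf stage). After twelve to sixteen days in a greenhouse, injury was visually rated against untreated controls from 0 (no effect) to 10 (complete control).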

[2] = test system: giant foxtail; assay: Test B pre/postemergence giant foxtail; format: in vivo, Setaria faberii; details: for Giant foxtail plant response rating (0 to 10 scale): 0 is no effect
In short: as §1

[3] = test system: wheat; assay: Test B pre/postemergence wheat; format: in vivo, Triticum aestivum
In short: as §1

[4] = test system: duck salad; assay: Test B flood test duck salad; format: in vivo, Heteranthera limosa
In short: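 Flood test on plants grown to the 2-leaf stage; treated plants kept in greenhouse twelve to sixteen days, then visually rated against controls on a 0 (no effect) to 10 (complete control) scale.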

[5] = test system: winter wheat; assay: Test E winter wheat; format: in vivo, Triticum aestivum; details: Postemergence, 0 to 100 scale
In short: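 Greenhouse test: for postemergence, foliar application at 1- to 4-leaf stage; compound in non-phytotoxic solvent with surfactant. Rating is visual, relative to untreated controls, about 21 to 28 days after treatment.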

[6] = test system: blackgrass; assay: Test E blackgrass; format: in vivo, Alopecurus myosuroides; details: Preemergence; for Blackgrass plant response rating (0 to 100 scale): Rate 250 g/ha
[7] = test system: green foxtail; assay: Test E green foxtail; format: in vivo, Setaria viridis; details: Preemergence; for Green foxtail plant response rating (0 to 100 scale): Rate 250 g/ha
[8] = test system: Italian ryegrass; assay: Test E Italian ryegrass; format: in vivo, Lolium multiflorum; details: Preemergence; for I. Ryegrass plant response rating (0 to 100 scale): Rate 250 g/ha
[9] = test system: winter wheat; assay: Test E winter wheat; format: in vivo, Triticum aestivum; details: Preemergence; for Wheat (winter) plant response rating (0 to 100 scale): Rate 250 g/ha
[10] = test system: wild oat; assay: Test E wild oat; format: in vivo, Avena fatua; details: Preemergence; for Wild oat plant response rating (0 to 100 scale): Rate 250 g/ha
[11] = test system: winter barley; assay: Test E winter barley; format: in vivo, Hordeum vulgare; details: Preemergence; for Barley (winter) plant response rating (0 to 100 scale): Rate 250 g/ha
[12] = Preemergence, Rate 62 g/ha, scale of 0 to 10 where 0 is no effect and 10 is complete control
[13] = Preemergence, Rate 125 g/ha, 10 is complete control
[14] = Preemergence, Rate 250 g/ha, scale 0 to 10, 0 is no effect, 10 is complete control
[15] = Preemergence, Rate 500 g/ha, scale 0 to 10 (0 no effect, 10 complete control)
[16] = Rate 62 g/ha, Postemergence, scale of 0 to 10 where 0 is no effect and 10 is complete control
[17] = Rate 125 g/ha, Postemergence, scale 0 to 10
[18] = Rate 500 g/ha, Postemergence, scale 0 to 10
[19] = Rate 62 g/ha, headed Pre-emergence (flood test species), scale 0 to 10 (0 no effect, 10 complete control)
[20] = Rate 125 g/ha, Pre-emergence, flood test species, scale 0 to 10 where 0 is no effect and 10 is complete control
[21] = Rate 250 g/ha, Pre-emergence, flood-test species, scale 0 to 10, 0 is no effect, 10 is complete control
[22] = Rate 500 g/ha, 0 is no effect, 100 is complete control
[23] = Rate 125 g/ha, 0 to 100 scale (0 no effect, 100 complete control)
[24] = Rate 500 g/ha, 0 to 100 scale where 0 is no effect and 100 is complete control
[25] = Preemergence, Rate 500 g/ha, scale of 0 to 10 where 0 is no effect and 10 is complete control
[26] = Rate 1000 g/ha, 0 to 100 scale where 0 is no effect and 100 is complete control

**Q.** Which results are given for `Cc1nc(C)c(Cn2c(=O)on(C(=O)N(c3ccc(Cl)cc3)C(C)C)c2=O)s1` [Compound 191]?
**A.** Crabgrass plant response rating [1, 12]: 0; Crabgrass plant response rating (0 to 10 scale) [1, 13]: 3; Crabgrass plant response rating [1, 14]: 8; Crabgrass plant response rating [1, 15]: 8; Crabgrass plant response rating [1, 16]: 2; Crabgrass plant response rating [1, 17]: 2; Plant response rating (0 to 10; 0 is no effect, 10 is complete control), Crabgrass ([1]; Rate 250 g/ha, Postemergence): 3; Crabgrass plant response rating [1, 18]: 6; Giant foxtail plant response rating [2, 12]: 3; Giant foxtail plant response rating (0 to 10 scale) [2, 13]: 8; Giant foxtail plant response rating [2, 14]: 9; Giant foxtail plant response rating [2, 15]: 10; Giant foxtail plant response rating [2, 16]: 0; Giant foxtail plant response rating [2, 17]: 0; Plant response rating (0 to 10; 0 is no effect, 10 is complete control), Giant foxtail ([2]; Rate 250 g/ha, Postemergence): 0; Giant foxtail plant response rating [2, 18]: 2; Wheat plant response rating [3, 12]: 0; Wheat plant response rating [3, 14]: 0; Wheat plant response rating [3, 15]: 2; Wheat plant response rating [3, 16]: 0; Wheat plant response rating [3, 17]: 0; Plant response rating (0 to 10; 0 is no effect, 10 is complete control), Wheat ([3]; Rate 250 g/ha, Postemergence): 0; Ducksalad plant response rating [4, 19]: 0; Ducksalad plant response rating [4, 20]: 0; Ducksalad plant response rating [4, 21]: 0; Plant response rating, Ducksalad ([4]; Rate 500 g/ha, headed Pre-emergence (flood test species), scale 0 to 10 (0 no effect, 10 complete control)): 0; Plant response rating, Wheat (winter) ([5]; Rate 125 g/ha): 30; Plant response rating, Wheat (winter) [5, 22]: 60; Plant response rating, Blackgrass [6, 23]: 10; Blackgrass plant response rating (0 to 100 scale) [6]: 20; Plant response rating, Blackgrass [6, 24]: 30; Plant response rating, Green foxtail [7, 23]: 30; Green foxtail plant response rating (0 to 100 scale) [7]: 40; Plant response rating, Green foxtail [7, 24]: 50; Plant response rating, I. Ryegrass [8, 23]: 0; I. Ryegrass plant response rating (0 to 100 scale) [8]: 0; Plant response rating, I. Ryegrass [8, 24]: 30; Plant response rating, Wheat (winter) [9, 23]: 10; Wheat (winter) plant response rating (0 to 100 scale) [9]: 30; Plant response rating, Wheat (winter) [9, 24]: 50; Plant response rating, Wild oat [10, 23]: 30; Wild oat plant response rating (0 to 100 scale) [10]: 40; Plant response rating, Wild oat [10, 24]: 50; Plant response rating, Barley (winter) [11, 23]: 10; Barley (winter) plant response rating (0 to 100 scale) [11]: 30; Plant response rating, Barley (winter) [11, 24]: 20

**Q.** For `CC(C)N(C(=O)n1oc(=O)n(Cc2ccco2)c1=O)c1ccc(F)cc1` [Compound 207], which “Crabgrass plant response rating” value [1, 12] is on record?
**A.** 0

**Q.** And the “Crabgrass plant response rating (0 to 10 scale)” value [1, 13]?
**A.** 0

**Q.** What about the “Crabgrass plant response rating” value [1, 14] of the same compound?
**A.** 3

**Q.** And the “Plant response rating, Crabgrass” value [1, 25]?
**A.** 4

**Q.** And the “Crabgrass plant response rating” value [1, 16]?
**A.** 0

**Q.** What about the “Crabgrass plant response rating” value [1, 17] of the same compound?
**A.** 0

**Q.** What about the “Plant response rating (0 to 10; 0 is no effect, 10 is complete control), Crabgrass” value ([1]; Rate 250 g/ha, Postemergence) of the same compound?
**A.** 2

**Q.** And the “Crabgrass plant response rating” value [1, 18]?
**A.** 3

**Q.** And the “Giant foxtail plant response rating” value [2, 12]?
**A.** 3

**Q.** What about the “Giant foxtail plant response rating (0 to 10 scale)” value [2, 13] of the same compound?
**A.** 6

**Q.** And the “Giant foxtail plant response rating” value [2, 14]?
**A.** 9

**Q.** And the “Plant response rating, Giant foxtail” value [2, 25]?
**A.** 10

**Q.** And the “Giant foxtail plant response rating” value [2, 16]?
**A.** 0

**Q.** What about the “Giant foxtail plant response rating” value [2, 17] of the same compound?
**A.** 0

**Q.** What about the “Plant response rating (0 to 10; 0 is no effect, 10 is complete control), Giant foxtail” value ([2]; Rate 250 g/ha, Postemergence) of the same compound?
**A.** 1

**Q.** What about the “Giant foxtail plant response rating” value [2, 18] of the same compound?
**A.** 2

**Q.** What about the “Wheat plant response rating” value [3, 12] of the same compound?
**A.** 0

**Q.** And the “Wheat plant response rating” value [3, 14]?
**A.** 0

**Q.** What about the “Plant response rating, Wheat” value [3, 25] of the same compound?
**A.** 0

**Q.** What about the “Wheat plant response rating” value [3, 16] of the same compound?
**A.** 0

**Q.** What about the “Wheat plant response rating” value [3, 17] of the same compound?
**A.** 0

**Q.** And the “Plant response rating (0 to 10; 0 is no effect, 10 is complete control), Wheat” value ([3]; Rate 250 g/ha, Postemergence)?
**A.** 0

**Q.** What about the “Ducksalad plant response rating” value [4, 19] of the same compound?
**A.** 0

**Q.** And the “Ducksalad plant response rating” value [4, 20]?
**A.** 0

**Q.** What about the “Ducksalad plant response rating” value [4, 21] of the same compound?
**A.** 0

**Q.** And the “Ducksalad plant response rating” value ([4]; Rate 500 g/ha, Pre-emergence, flood test species, scale 0 to 10 (0 no effect, 10 complete control))?
**A.** 2

**Q.** And the “Plant response rating, Wheat (winter)” value ([5]; Rate 1000 g/ha, 0 is no effect and 100 is complete control)?
**A.** 50

**Q.** What about the “Plant response rating, Wheat (winter)” value [5, 22] of the same compound?
**A.** 30

**Q.** And the “Blackgrass plant response rating (0 to 100 scale)” value [6]?
**A.** 30

**Q.** And the “Plant response rating, Blackgrass” value [6, 24]?
**A.** 80

**Q.** And the “Plant response rating, Blackgrass” value [6, 26]?
**A.** 85

**Q.** What about the “Green foxtail plant response rating (0 to 100 scale)” value [7] of the same compound?
**A.** 80

**Q.** What about the “Plant response rating, Green foxtail” value [7, 24] of the same compound?
**A.** 90

**Q.** What about the “Plant response rating, Green foxtail” value [7, 26] of the same compound?
**A.** 100

**Q.** What about the “I. Ryegrass plant response rating (0 to 100 scale)” value [8] of the same compound?
**A.** 40

**Q.** And the “Plant response rating, I. Ryegrass” value [8, 24]?
**A.** 55

**Q.** What about the “Plant response rating, I. Ryegrass” value [8, 26] of the same compound?
**A.** 30

**Q.** What about the “Wheat (winter) plant response rating (0 to 100 scale)” value [9] of the same compound?
**A.** 60

**Q.** What about the “Plant response rating, Wheat (winter)” value [9, 24] of the same compound?
**A.** 70

**Q.** What about the “Plant response rating, Wheat (winter)” value [9, 26] of the same compound?
**A.** 70

**Q.** What about the “Wild oat plant response rating (0 to 100 scale)” value [10] of the same compound?
**A.** 65

**Q.** What about the “Plant response rating, Wild oat” value [10, 24] of the same compound?
**A.** 70

**Q.** What about the “Plant response rating, Wild oat” value [10, 26] of the same compound?
**A.** 70

**Q.** What about the “Barley (winter) plant response rating (0 to 100 scale)” value [11] of the same compound?
**A.** 65

**Q.** What about the “Plant response rating, Barley (winter)” value [11, 24] of the same compound?
**A.** 70

**Q.** What about the “Plant response rating, Barley (winter)” value [11, 26] of the same compound?
**A.** 80
